Values after ≈ are worked out from the molar mass of the structure shown.
Legend:
[1] = system: HCMV recombinant mutant virus (RV145); experiment: HCMV microtiter plate assay (beta-glucuronidase reporter); type: cell-based, Human Cytomegalovirus; conditions: for IC50: Human betaherpesvirus 5, Fibroblast, read-out: IC50 (ug/ml) HCMV; for IC50 (ug/ml) HCMV: HCMV in human foreskin fibroblasts
Method in brief: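 Replication was read out as virus-encoded β-glucuronidase activity, measured with a chromogenic or fluorogenic glucuronide substrate in cell lysates at 96 h post-infection. Infection of human foreskin fibroblasts with RV145 took place with compound present. IC50 was derived from a range of inhibitor amounts.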

[2] = system: VZV strain Ellen; experiment: VZV Antiviral (ELISA) assay; type: cell-based; conditions: for IC50: Human alphaherpesvirus 3, VZV strain Ellen in HFF cells, read-out: IC50 (ug/ml) VZV; for IC50 (ug/ml) VZV / % inhibition 10 ug/ml VZV: VZV strain Ellen in HFF cells; for % inhibition 10 ug/ml VZV: at 10 ug/ml
Experimental: For the generation of stock VZV to be used in the assay, VZV strain Ellen (ATCC #VR-1367) is used to infect human foreskin fibroblast (HFF) cells at low multiplicity (less than 0.1) and incubated overnight at 37° C. in 5% CO2. After the overnight incubation, the mixture of uninfected and VZV-infected HFF infected cells are then harvested and added to each well of 96-well plates (3.5×10^4 cells in 100 μl DMEM supplemented with 2% FBS) which contain test compound or the reference standard drug control (in 100 μl DMEM supplemented with 2% FBS per well). These cells are incubated for three days at 37° C. in 5% CO2, then fixed for ELISA assay. The primary antibody is murine anti-VZV glycoprotein II monoclonal antibody (Applied Biosystems, Inc. #13-145-100) and the secondary antibody is goat anti-mouse IgG linked to β-galactosidase. Thus the extent of viral replication is determined by assessing β-galactosidase activity by quantifying the generation of the 4-methyl umbelliferone fluorescent cleavage product after addition of the methyl umbelliferyl-β-D-galactoside (Sigma #M1633) substrate on a microfluorimeter (365 nm for excitation and 450 nm for emission). Antiviral activity (IC50) of the test compound is determined by comparing the flourescence obtained in absence of compound to that obtained in the presence of compound.

[3] = system: HSV-1; experiment: HSV Antiviral (ELISA) assay; type: cell-based; conditions: for IC50: Human alphaherpesvirus 1, HSV-1 in Vero cells, read-out: IC50 (ug/ml) HSV; for IC50 (ug/ml) HSV: HSV-1 in Vero cells
Method in brief: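 Replication measured as glycoprotein D signal in fixed cells: anti-gD antibody plus β-galactosidase-linked secondary, fluorogenic substrate read at 365/450 nm. Vero cells (2% FBS DMEM) received compound 30 min pre-infection, HSV-1 MOI 0.006, ~24 h incubation; IC50 relative to no-compound fluorescence.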

Structure (SMILES)	IC50 [1] [µg/mL]	IC50 [2] [µg/mL]	inhibition at 10 µg/mL ([2]; Human alphaherpesvirus 3, read-out: % inhibition 10 ug/ml VZV, at 10 ug/ml, VZV strain Ellen in HFF cells) [%]	IC50 [3] [µg/mL]	IC50 (ug/ml) HCMV [1] [µg/mL]	IC50 (ug/ml) VZV [2] [µg/mL]	% inhibition 10 ug/ml VZV [2] [%]	IC50 (ug/ml) HSV [3] [µg/mL]
O=C(Nc1ccc(NC(=O)c2csnn2)cc1)Nc1cc(Cl)cc(Cl)c1 [Example 86, [1,2,3]Thiadiazole-4-carboxylic acid {4-[3-(3,5-dichloro-phenyl)-ureido]-phenyl}-amide]	0.04 (≈ 0.098 µM)	> 10	32	> 10				
O=C(Nc1ccc(NC(=O)c2ccco2)cc1)Nc1cc(C(F)(F)F)cc(C(F)(F)F)c1 [Example 88, Furan-2-carboxylic acid {4-[3-(3,5-bis-trifluoromethyl-phenyl)-ureido]-phenyl}-amide]	0.013 (≈ 0.0284 µM)	0.03 (≈ 0.0656 µM)		> 10				
C[C@H](NC(=S)Nc1ccc(NC(=O)c2cscn2)nc1)c1cc(C(F)(F)F)cc(C(F)(F)F)c1 [Example 91]					0.018 (≈ 0.0346 µM)	>10	6	>10
COc1cc(OC)c(NC(=S)Nc2ccc(NC(=O)c3ccc(C)s3)cc2)cc1Cl [Example 145]					>10	>15	51	2 (≈ 4.33 µM)
COc1cc(OC)c(NC(=S)Nc2ccc(NC(=O)c3cccc4cccnc34)cc2)cc1Cl [Example 146]					>10	>10	14	>10
COc1cc(OC)c(NC(=S)Nc2ccc(NC(=O)c3cccn3C)cc2)cc1Cl [Example 147]					>50	>10	42	10 (≈ 22.5 µM)
COc1cc(OC)c(NC(=S)Nc2ccc(NC(=O)c3cc4ccccc4s3)cc2)cc1Cl [Example 153]					>10	>10	8	2 (≈ 4.02 µM)
COc1cc(OC)c(NC(=S)Nc2ccc(NC(=O)c3cc4ccccc4o3)cc2)cc1Cl [Example 154]					10 (≈ 20.7 µM)	>10	23	4 (≈ 8.3 µM)
COc1cc(OC)c(NC(=S)Nc2ccc(NC(=O)c3ccncc3)cc2)cc1Cl [Example 155]					5 (≈ 11.3 µM)	>10	22	5 (≈ 11.3 µM)
COc1cc(OC)c(NC(=S)Nc2ccc(NC(=O)c3nccc4ccccc34)cc2)cc1Cl [Example 158]					>10	>15	52	4 (≈ 8.11 µM)
COc1cc(OC)c(NC(=S)Nc2ccc(NC(=O)c3ccc4ccccc4n3)cc2)cc1Cl [Example 159]					>10	>10	62	>10
COc1cc(OC)c(NC(=S)Nc2ccc(NC(=O)c3cccnc3)cc2)cc1Cl [Example 160]					>10	>10	27	2.5 (≈ 5.64 µM)
COc1cc(OC)c(NC(=S)Nc2ccc(NC(=O)c3ccc([N+](=O)[O-])o3)cc2)cc1Cl [Example 161]					>10	5 (≈ 10.5 µM)	113	3 (≈ 6.29 µM)

From patent US6426355B1, “Heterocyclic carboxamide-containing thiourea inhibitors of herpes viruses containing phenylenediamine group” (American Home Products, priority 1998, dated 2002)
